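96-well plates; 48 h exposure; 5 concentrations. Endpoints by linear interpolation between flanking doses. Not reached: highest tested concentration assigned. GI50: concentration for 50% inhibition of growth. The concentration for full growth arrest is given as TGI.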
Columns and labels:
Assay in all cases: inhibition of tumour cell growth, NCI panel, 48 h
SK-MEL-2 melanoma = system: SK-MEL-2 melanoma
MDA-MB-231 breast = system: MDA-MB-231 breast
HT29 colon = system: HT29 colon
CAKI-1 renal = system: CAKI-1 renal
SN12C renal = system: SN12C renal
SF-268 CNS = system: SF-268 CNS
UACC-62 melanoma = system: UACC-62 melanoma
UO-31 renal = system: UO-31 renal
NCI-H460 lung = system: NCI-H460 lung
COLO 205 colon = system: COLO 205 colon

SMILES | TGI (SK-MEL-2 melanoma) | TGI (MDA-MB-231 breast) | TGI (HT29 colon) | TGI (CAKI-1 renal) | TGI (SN12C renal) | TGI (SF-268 CNS) | TGI (UACC-62 melanoma) | TGI (UO-31 renal) | TGI (NCI-H460 lung) | TGI (COLO 205 colon) | GI50 (SK-MEL-2 melanoma) | GI50 (MDA-MB-231 breast) | GI50 (HT29 colon) | GI50 (CAKI-1 renal) | GI50 (SN12C renal) | GI50 (SF-268 CNS) | GI50 (UACC-62 melanoma) | GI50 (UO-31 renal) | GI50 (NCI-H460 lung) | GI50 (COLO 205 colon)
COc1cc2c(cc1OC)[C@H](C)N1CCc3cc(OC)c(OC)cc3[C@@H]1C2 | > 100 µM | > 100 µM | > 100 µM | > 100 µM | > 100 µM | > 100 µM | > 100 µM | > 100 µM | > 100 µM | > 100 µM |  |  |  |  |  |  |  |  |  | 
Cc1c(Cl)cccc1C(=O)Nc1nc2c(s1)CN(C(=O)c1ccc(C(F)(F)F)cc1)CC2 | > 50 µM | > 50 µM | 9.2 µM | > 50 µM | > 50 µM | > 50 µM | > 50 µM | > 50 µM | > 20.4 µM | 0.762 µM | 0.202 µM | 0.344 µM | 0.0753 µM | 0.0711 µM | 0.284 µM | 0.565 µM | 0.13 µM | 0.507 µM | 0.158 µM | 0.164 µM
COc1ccc2c(c1)c(CC(=O)[Se]C)c(C)n2C(=O)c1ccc(Cl)cc1 | > 0.794 µM | > 0.637 µM | > 1 µM | > 0.515 µM | > 1 µM | > 0.53 µM | > 1 µM | > 0.523 µM | > 1 µM | > 1 µM | > 0.436 µM | > 0.383 µM | > 0.223 µM | > 0.266 µM | > 0.49 µM | > 0.199 µM | > 0.445 µM |  | > 0.304 µM | > 0.608 µM
Cc1cc2c(C(C)C)c(O)c(O)cc2c(O)c1-c1c(C)cc2c(C(C)C)c(O)c(O)cc2c1O | 33.9 µM | 34.8 µM | 39.6 µM | 82.6 µM | 20.6 µM | 34.6 µM | 14.3 µM | 29.1 µM | 40 µM | 15 µM | 17.7 µM | 13.5 µM | 20.1 µM | 19.2 µM | 8.03 µM | 12 µM | 2.32 µM | 14.9 µM | 11.8 µM | 3.84 µM
CC1=C(C(=O)Nc2ccc3n[nH]c(C)c3c2)C(c2ccc(C(F)(F)F)cc2)CC(=O)N1 (stereo not given) | > 25 µM | > 25 µM | > 25 µM | > 25 µM | > 25 µM | > 25 µM | > 25 µM | > 25 µM | > 25 µM | > 19.1 µM | > 25 µM | 15.9 µM | > 25 µM | > 18.8 µM | > 25 µM | 8.59 µM | 16 µM | 3.91 µM | 16.5 µM | 7.64 µM
CC1=C(c2cccc(O)c2)[C@H](c2ccc(OCCN3CC(CF)C3)cc2)Oc2ccc(O)cc21 | 20.9 µM | 17.4 µM | 12.8 µM | 12.9 µM | 21.3 µM | 21.6 µM | 22.6 µM | 16 µM | 18.2 µM | 23.1 µM | 7.2 µM | 4.87 µM | 3.52 µM | 3.13 µM | 7.42 µM | 6.28 µM | 10.4 µM | 3.56 µM | 4.94 µM | 6.34 µM
O=C1/C(=C/c2ccccc2)CN(C(=O)CCN2CCOCC2)C/C1=C\c1ccccc1 | 6.96 µM | 9.78 µM | 3.8 µM | 23 µM | 4.55 µM | 8.73 µM | 3.52 µM | 19.2 µM | 5.47 µM | 7.67 µM |  |  |  |  |  |  |  |  |  | 
COC1CC(O[C@H]2CC[C@@]3(C)[C@H](CC[C@@H]4[C@@H]3CC[C@]3(C)[C@@H](C5=CC(=O)OC5)[C@@H](OC(C)=O)C[C@]43O)C2)OC(C)C1O (stereo not given in full) | < 0.0105 µM | < 0.0155 µM | < 0.01 µM | < 0.01 µM |  | < 0.01 µM | < 0.01 µM | < 0.01 µM | < 0.01 µM | < 0.01 µM | < 0.01 µM | < 0.01 µM | < 0.01 µM | < 0.01 µM |  | < 0.01 µM | < 0.01 µM | < 0.01 µM | < 0.01 µM | < 0.01 µM
COc1cc2nc(N3CCCC3)nc(NCc3ccccc3)c2cc1OC | 5.13 µM | 4.48 µM | 7.29 µM | 3.14 µM | 21.7 µM | 23.9 µM | 5.39 µM | 3.21 µM | 8.73 µM | 3.14 µM | 2.26 µM | 2.1 µM | 2.29 µM | 1.57 µM | 8.09 µM | 8.31 µM | 2.28 µM | 1.38 µM | 2.95 µM | 1.45 µM
CCCCOC(=O)N1CCN(/[N+]([O-])=N/Oc2ccc([N+](=O)[O-])cc2[N+](=O)[O-])CC1 | 21.8 µM | 5.63 µM | > 100 µM | 6.77 µM | 31.5 µM | 25.4 µM | 26.8 µM | 41.3 µM | > 100 µM | 5.99 µM | 4.55 µM | 2.31 µM | 4.67 µM | 3.16 µM | 11 µM | 6.42 µM | 13.6 µM | 3.84 µM | 4.94 µM | 2.63 µM
N#C/C(=C\c1ccsc1)c1nc2ccccc2o1 | > 100 µM | > 100 µM | > 100 µM | > 100 µM | > 100 µM | > 100 µM | > 100 µM | > 100 µM | > 100 µM | > 100 µM | 98.5 µM | 22.4 µM | > 100 µM | 22.3 µM | > 100 µM | 38 µM | 61.6 µM | 46.4 µM | > 100 µM | 39 µM
CC(C)(C)C(=O)OCC1C(=O)OCC1C(=O)N1Cc2cc3ccccc3nc2C1 (stereo not given) | 22.1 µM | 14.4 µM | 14.2 µM | 3.87 µM | 16.8 µM | 24.7 µM | 15.7 µM | 7.99 µM | 5.52 µM | 2.41 µM |  |  |  |  |  |  |  |  |  | 
Cn1ncnc1[C@H]1c2n[nH]c(=O)c3cc(F)cc(c23)N[C@@H]1c1ccc(F)cc1 | > 100 µM | > 100 µM | > 100 µM | > 100 µM | > 100 µM | > 100 µM | > 100 µM | > 100 µM | > 100 µM | > 100 µM | > 100 µM | > 100 µM | > 100 µM | 5.89 µM | 3.26 µM | 3.07 µM | > 100 µM | 6.5 µM | 0.0354 µM | > 100 µM
O=C1C(Nc2ccc(Cl)cc2)=C(I)C(=O)c2ncccc21 | 3.03 µM | 2.7 µM |  | 1.54 µM | 2.99 µM | 3.23 µM | 3.12 µM | 1.74 µM |  | 2.79 µM | 1.55 µM | 1.31 µM |  | 0.327 µM | 1.47 µM | 1.37 µM | 1.33 µM | 0.473 µM |  | 1.32 µM
O=C(Nc1cccc(-n2cc(-c3ccncc3)c(-c3ccc(Cl)c(O)c3)n2)c1)Nc1cc(C(F)(F)F)cc(C(F)(F)F)c1 | 2.18 µM | 1.66 µM | 1.64 µM | 2.88 µM | 3.14 µM | 2.29 µM | 1.96 µM | 1.77 µM | 1.36 µM | 1.71 µM | 0.999 µM | 0.768 µM | 0.711 µM | 0.867 µM | 0.852 µM | 0.846 µM | 0.766 µM | 0.676 µM | 0.391 µM | 0.896 µM
O=C1c2cc3c(cc2[C@@H]2[C@H]1c1ccc([N+](=O)[O-])cc1C(=O)N2CCCBr)OCO3 | > 100 µM | 0.699 µM | > 100 µM | < 0.0335 µM | < 0.01 µM | 0.394 µM | < 0.01 µM | > 100 µM |  | > 100 µM | 2.15 µM | 0.187 µM | < 0.01 µM | < 0.01 µM | < 0.01 µM | < 0.01 µM | < 0.01 µM | < 0.01 µM |  | < 0.01 µM
Cc1ccccc1OCC(O)CN1CCN(c2ccc(Cl)cc2)CC1 (stereo not given) | 35 µM | 29.8 µM | 29.2 µM | 26.6 µM | 30.8 µM | 34.3 µM | 27.5 µM | 20.8 µM | 34.1 µM | 30.3 µM | 18.7 µM | 14.4 µM | 14.5 µM | 12.5 µM | 16 µM | 17.4 µM | 13.8 µM | 6.75 µM | 16.7 µM | 15.7 µM
CC1(C)C2CCC13C(=O)C1OC3(C2)C2C(=O)c3ccccc3C(=O)C12 (stereo not given) | > 100 µM | 7.98 µM | > 100 µM | 72.8 µM | > 100 µM | > 100 µM |  | > 100 µM | > 100 µM | > 100 µM | > 100 µM | 2.44 µM | > 100 µM | 21.9 µM | > 100 µM | > 100 µM |  | > 100 µM | > 100 µM | > 100 µM
COc1cccc(N2C(=O)C3c4[nH]c5ccccc5c4C4CCCC4C3C2=O)c1 (stereo not given) | > 10 µM | 5.63 µM | > 10 µM | > 10 µM | 9.02 µM | > 10 µM | > 10 µM |  | > 10 µM | > 10 µM |  |  |  |  |  |  |  |  |  | 
CN1CCN(C(=O)C(C)(C)c2ccc(C(=O)Nc3cn4cc(-c5ccncc5)ccc4n3)cc2)CC1 | 1.62 µM | > 54.1 µM | > 94.9 µM | > 100 µM | > 100 µM | 10.5 µM |  | 1.3 µM | 34.3 µM |  | 0.316 µM | 0.413 µM | 0.358 µM | 0.193 µM | 0.267 µM | 0.38 µM |  | 0.272 µM | 0.303 µM | 0.289 µM
